Results published in patent US11542262B2, “Phosphatidylinositol 3-kinase inhibitors” (NANJING ZHENGXIANG PHARMACEUTICALS CO., LTD., priority 2019, dated 2023).
≈ marks a conversion by molar mass, not a printed value.

Columns and labels:
[1] = dogs, reported by Pemberton et al, J Med Chem 2018; cited from earlier work
[2] = target: T1, PI3K delta (Homo sapiens, UniProt O00329); experiment: Raji cell assay: phosphorylation of AKT in anti-IgM stimulated Raji cells (AlphaLISA); type: cell-based; conditions: pAKT, read-out: PI3K delta Raji cell (nM) cellular activity (IC50)
T1 construct: endogenous in cells; host or cells: Raji
T1 sequence (O00329 whole entry): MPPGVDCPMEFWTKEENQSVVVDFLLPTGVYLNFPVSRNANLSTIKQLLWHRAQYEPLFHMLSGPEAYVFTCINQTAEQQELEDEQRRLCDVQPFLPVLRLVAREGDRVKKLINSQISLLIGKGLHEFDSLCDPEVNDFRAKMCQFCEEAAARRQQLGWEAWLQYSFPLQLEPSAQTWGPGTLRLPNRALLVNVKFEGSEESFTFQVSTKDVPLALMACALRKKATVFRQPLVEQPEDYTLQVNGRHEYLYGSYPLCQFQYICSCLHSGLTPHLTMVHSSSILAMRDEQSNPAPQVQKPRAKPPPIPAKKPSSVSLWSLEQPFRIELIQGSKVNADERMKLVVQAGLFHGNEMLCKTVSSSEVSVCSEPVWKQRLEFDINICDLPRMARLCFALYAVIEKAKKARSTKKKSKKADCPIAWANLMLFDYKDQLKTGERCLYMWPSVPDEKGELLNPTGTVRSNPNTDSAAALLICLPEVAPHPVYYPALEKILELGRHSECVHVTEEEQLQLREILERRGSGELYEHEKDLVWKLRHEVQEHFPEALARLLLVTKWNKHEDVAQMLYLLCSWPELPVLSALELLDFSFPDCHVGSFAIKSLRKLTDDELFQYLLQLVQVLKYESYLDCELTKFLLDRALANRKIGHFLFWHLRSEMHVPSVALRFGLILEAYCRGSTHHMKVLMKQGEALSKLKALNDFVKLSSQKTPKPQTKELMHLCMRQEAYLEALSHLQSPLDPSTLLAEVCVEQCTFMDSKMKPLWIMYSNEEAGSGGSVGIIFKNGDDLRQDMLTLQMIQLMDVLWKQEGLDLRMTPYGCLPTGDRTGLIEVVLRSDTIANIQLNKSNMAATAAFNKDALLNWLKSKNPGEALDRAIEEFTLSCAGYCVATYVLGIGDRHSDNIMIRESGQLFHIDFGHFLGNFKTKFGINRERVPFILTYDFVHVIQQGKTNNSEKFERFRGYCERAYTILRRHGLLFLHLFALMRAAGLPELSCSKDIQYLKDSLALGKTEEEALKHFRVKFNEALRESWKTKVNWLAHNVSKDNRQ
T1 sequence (P27986 whole entry partner): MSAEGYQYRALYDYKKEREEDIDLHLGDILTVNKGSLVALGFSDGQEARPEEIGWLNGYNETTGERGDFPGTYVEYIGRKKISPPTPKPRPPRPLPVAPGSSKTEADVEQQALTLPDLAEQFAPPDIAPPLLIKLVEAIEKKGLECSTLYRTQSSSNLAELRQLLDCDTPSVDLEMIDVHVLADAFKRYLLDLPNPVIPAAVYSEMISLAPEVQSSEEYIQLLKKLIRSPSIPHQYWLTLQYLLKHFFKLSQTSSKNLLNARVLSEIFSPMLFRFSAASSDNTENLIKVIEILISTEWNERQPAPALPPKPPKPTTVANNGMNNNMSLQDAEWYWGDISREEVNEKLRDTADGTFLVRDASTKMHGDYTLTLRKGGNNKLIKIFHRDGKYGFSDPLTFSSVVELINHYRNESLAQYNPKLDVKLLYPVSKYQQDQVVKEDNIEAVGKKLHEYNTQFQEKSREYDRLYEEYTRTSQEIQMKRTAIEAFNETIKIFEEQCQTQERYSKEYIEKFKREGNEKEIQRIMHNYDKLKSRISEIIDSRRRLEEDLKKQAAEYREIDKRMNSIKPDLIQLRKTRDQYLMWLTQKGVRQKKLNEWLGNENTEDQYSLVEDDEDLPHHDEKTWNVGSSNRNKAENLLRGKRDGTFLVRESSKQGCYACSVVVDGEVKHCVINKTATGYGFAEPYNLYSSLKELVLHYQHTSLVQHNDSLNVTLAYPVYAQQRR
Procedure: (§1) This study aims to determine the inhibitory effect of compounds on PI3K gamma and PI3K delta in corresponding cell based assays. PI3K gamma activity was reflected by phosphorylation of AKT in C5a stimulated RAW264.7 cells, and PI3K delta activity was reflected by phosphorylation of AKT in anti-IgM stimulated Raji cells. Phosphorylation of AKT in cells was determined using AlphaLISA technology from PerkinElmer.
Raji cell assay: Prepare Passage 11 Raji cell and add 6 μL of 60K cells per well in 384-well plate. Centrifuge at 500 RPM for 30 s and incubate for 2 hours at 37° C., 5% CO2. Add 30 nL compound by Echo and incubate for 30 min at 37° C. Add 2 μL of IgM (4×, 12 μg/mL) per well, centrifuge at 500 RPM for 30 s and incubate for 10 min at 37° C. Add 2 μL of 5× lysis buffer by Multidrop. Shake 10 min on a plate shaker. Add 5 μL acceptor mix provided in the kit. Centrifuge at 1000 RPM for 1 min. Add 5 μL donor mix provided in the kit. Centrifuge at 1000 RPM for 1 min. Then incubate for 2 hours at 25° C., keep the plate in dark. Read AlphaLISA signal on Envision.
Data analysis: Fit the cpd IC50 from non-linear regression equation. Y=Bottom+(Top−Bottom)/(1+10^((Log IC50−X)*Hill Slope)) X: Log of cpd concentration Y: Inhibition

[3] = target: T2, PI3K gamma (Mus musculus, UniProt Q9JHG7); experiment: Raw264.7 cell assay: phosphorylation of AKT in C5a stimulated RAW264.7 cells (AlphaLISA); type: cell-based; conditions: pAKT, read-out: PI3K gamma Raw264.7 cell (nM) cellular activity (IC50)
T2 construct: endogenous in cells; host or cells: RAW264.7
Procedure: as §1
Raw264.7 cell assay: Prepare Passage 15 Raw264.7 cell and add 6 μL of 30K cells per well in 384-well plate by multidrop. Centrifuge at 500 RPM for 30 s and incubate for 2 hours at 37° C., 5% CO2. Add 30 nL compound by echo and incubate for 30 min at 37° C., 5% CO2. […] Add 2 μL of 5× lysis buffer by multidrop, incubate for 10 min on a plate shaker. Add 5 μL acceptor mix provided in the kit, centrifuge at 1000 RPM for 1 min. Add 5 μL donor mix provided in the kit, centrifuge at 1000 RPM for 1 min and incubate in dark for 2 hours at 25° C. Read AlphaLISA signal on Envision.
Y=Bottom+(Top−Bottom)/(1+10^((Log IC50−X)*Hill Slope)) X: Log of cpd concentration Y: Inhibition

[4] = target: PI3Kδ (Homo sapiens, UniProt O00329); experiment: ADP-Glo luminescent assay, enzymatic activity of PI3K delta; type: biochemical; conditions: ATP 25 μM; read-out: PI3K delta (nM) inhibitory activity (IC50)
PI3Kδ, sequence (O00329 whole entry, species assumed, canonical isoform): as the sequence (O00329 whole entry) above
PI3Kδ, sequence (P27986 whole entry partner, species assumed, canonical isoform): as the sequence (P27986 whole entry partner) above
Procedure: Enzymatic activity of PI3K isoforms: Enzymatic activity of the class I PI3K isoforms in the presence of the compounds of Table 1 was measured using ADP-Glo luminescent assay against PI3Kα, PI3Kβ, PI3Kδ and PI3Kγ with ATP concentration at 25 μM. […] The compounds would be tested from 1 or 10 μM, 3-fold dilution for 10 doses, in duplicate.
(§2) Compound preparation: Dilute a compound to 100× of the final desired highest inhibitor concentration in reaction by 100% DMSO. Transfer 100 μl of this compound dilution to a well in a 96-well plate and serially dilute it with DMSO for a total of 10 concentrations.
(§3) Kinase reaction: Prepare a solution of PI3K in 1× kinase buffer at 2-fold the final concentration of each reagent in the assay. Control wells contain 1× kinase buffer without enzyme. Prepare substrate solution of PIP2 substrate and ATP in 1× kinase reaction buffer at 2-fold of the final concentration. Add concentration substrate solution to each well to the final concentration. Cover the assay plate, shake to mix, and incubate at room temperature for 1 hour. Add 5 μl of ADP-Glo reagent to each well to stop the reaction. Mix briefly with a quick spin, shake slowly on the shaker for 120 min. Add 10 ul Kinase Detection Reagent to each well, shake 1 min, equilibrate for 30 min before reading on a luminescence plate reader.
(§4) Data Analysis: Convert RLU values to percent inhibition values as Percent inhibition=(max−sample RLU)/(max−min)*100. “min”—no enzyme control; “max”—DMSO control. Fit the data in XLFit excel add-in version 5.4.0.8 to obtain IC50 values. Y=Bottom+(Top−Bottom)/(1+(IC50/X)^HillSlope).

[5] = target: PI3Kγ (Homo sapiens, UniProt P48736); experiment: ADP-Glo luminescent assay, enzymatic activity of PI3K gamma; type: biochemical; conditions: ATP 25 μM; read-out: PI3K gamma (nM) inhibitory activity (IC50)
PI3Kγ, sequence (P48736 whole entry, species assumed): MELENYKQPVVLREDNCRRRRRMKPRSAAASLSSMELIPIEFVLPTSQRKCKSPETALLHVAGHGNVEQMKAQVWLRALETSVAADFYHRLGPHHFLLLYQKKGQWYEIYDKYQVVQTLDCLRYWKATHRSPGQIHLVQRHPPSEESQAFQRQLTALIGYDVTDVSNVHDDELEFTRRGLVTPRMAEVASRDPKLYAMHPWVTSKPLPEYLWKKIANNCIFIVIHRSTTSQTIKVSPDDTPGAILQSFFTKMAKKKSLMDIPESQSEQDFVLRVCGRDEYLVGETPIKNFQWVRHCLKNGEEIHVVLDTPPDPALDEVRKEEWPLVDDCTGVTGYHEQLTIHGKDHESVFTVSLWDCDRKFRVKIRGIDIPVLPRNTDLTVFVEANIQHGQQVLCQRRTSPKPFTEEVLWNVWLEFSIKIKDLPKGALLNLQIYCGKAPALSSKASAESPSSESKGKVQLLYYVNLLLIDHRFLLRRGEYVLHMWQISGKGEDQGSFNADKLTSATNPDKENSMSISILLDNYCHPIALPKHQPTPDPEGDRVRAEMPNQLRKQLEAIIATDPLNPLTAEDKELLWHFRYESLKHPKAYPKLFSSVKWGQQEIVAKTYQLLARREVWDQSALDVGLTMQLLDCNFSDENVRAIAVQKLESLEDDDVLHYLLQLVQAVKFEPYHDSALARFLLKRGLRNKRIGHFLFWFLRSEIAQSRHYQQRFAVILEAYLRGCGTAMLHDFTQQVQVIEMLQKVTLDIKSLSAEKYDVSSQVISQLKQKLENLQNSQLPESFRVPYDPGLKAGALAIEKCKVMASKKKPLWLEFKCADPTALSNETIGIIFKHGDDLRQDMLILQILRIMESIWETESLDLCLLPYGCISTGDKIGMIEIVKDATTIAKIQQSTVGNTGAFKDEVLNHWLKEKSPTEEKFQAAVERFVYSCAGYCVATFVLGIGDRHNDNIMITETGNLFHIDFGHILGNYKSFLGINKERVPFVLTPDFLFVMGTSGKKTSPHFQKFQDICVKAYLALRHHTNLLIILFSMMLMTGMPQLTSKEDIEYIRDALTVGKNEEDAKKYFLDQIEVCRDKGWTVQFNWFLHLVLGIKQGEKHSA

[6] = Kinetic solubility test in PBS pH7.4; type: physicochemical; conditions: aqueous buffer, kinetic from dmso stock; PBS pH 7.4, 25° C., 2 hours
Procedure: 15 μL of stock solution (10 mM) was placed in order into their proper 96-well rack. 485 μL of PBS pH7.4 was added into each vial of the cap-less Solubility Sample plate. The assay was performed in singlet. Add one stir stick to each vial and seal using a molded PTFE/Silicone plug. […] After completion of the 2 hours, the samples from the Solubility Sample plate were transferred into the filter plate. all the samples were filtered using the Vacuum Manifold. Aliquot of 5 μL was taken from the filtrate followed by addition of 495 μL of a mixture of H2O and acetonitrile containing internal standard (1:1). A certain proportion of ultrapure water was used to dilute the diluent according to the peak shape. The dilution factor was changed according to the solubility values and the LC-MS signal response.
Preparation of 3 μM standards (STD): From the 10 mM DMSO STD plate, 6 μL was transferred into the remaining empty plate, and then 194 μL of DMSO was added to that plate to have a STD concentration of 300 μM. From the 300 μM DMSO STD plate, 5 μL was transferred into the remaining empty plate, and then 495 μL of a mixture of H2O and acetonitrile containing internal standard (1:1) was added to that plate to have a final STD concentration of 3 μM. A certain proportion of ultrapure water was used to dilute the diluent according to the peak shape. The concentrations of the standard samples were changed according to the LC-MS signal response.
Procedure for sample analysis: The plate was placed into the well plate autosampler. The samples were evaluated by LC-MS/MS analysis.
Data analysis: All calculations were carried out using Microsoft Excel.
The filtrate was analyzed and quantified against a standard of known concentration using LC coupled with mass spectral peak identification and quantitation. Solubility values of the test compound and control compound were calculated as follows:
[formula] • Any value of the compounds that was not within the specified limits was rejected and the experiment was repeated.

[7] = target: PI3Kα (Homo sapiens, UniProt P42336); experiment: ADP-Glo luminescent assay, enzymatic activity of PI3K alpha; type: biochemical; conditions: ATP 25 μM; read-out: PI3K alpha (nM) inhibitory activity (IC50)
Procedure: (§5) Enzymatic activity of PI3K isoforms: Enzymatic activity of the class I PI3K isoforms in the presence of the compounds of Table 1 was measured using ADP-Glo luminescent assay against PI3Kα, PI3Kβ, PI3Kδ and PI3Kγ with ATP concentration at 25 μM. IPI-549 was used as the reference compound. The compounds would be tested from 1 or 10 μM, 3-fold dilution for 10 doses, in duplicate.
as §2, §3, §4

[8] = target: PI3Kβ (Homo sapiens, UniProt P42338); experiment: ADP-Glo luminescent assay, enzymatic activity of PI3K beta; type: biochemical; conditions: ATP 25 μM; read-out: PI3K beta (nM) inhibitory activity (IC50)
PI3Kβ, sequence (P42338 whole entry, species assumed): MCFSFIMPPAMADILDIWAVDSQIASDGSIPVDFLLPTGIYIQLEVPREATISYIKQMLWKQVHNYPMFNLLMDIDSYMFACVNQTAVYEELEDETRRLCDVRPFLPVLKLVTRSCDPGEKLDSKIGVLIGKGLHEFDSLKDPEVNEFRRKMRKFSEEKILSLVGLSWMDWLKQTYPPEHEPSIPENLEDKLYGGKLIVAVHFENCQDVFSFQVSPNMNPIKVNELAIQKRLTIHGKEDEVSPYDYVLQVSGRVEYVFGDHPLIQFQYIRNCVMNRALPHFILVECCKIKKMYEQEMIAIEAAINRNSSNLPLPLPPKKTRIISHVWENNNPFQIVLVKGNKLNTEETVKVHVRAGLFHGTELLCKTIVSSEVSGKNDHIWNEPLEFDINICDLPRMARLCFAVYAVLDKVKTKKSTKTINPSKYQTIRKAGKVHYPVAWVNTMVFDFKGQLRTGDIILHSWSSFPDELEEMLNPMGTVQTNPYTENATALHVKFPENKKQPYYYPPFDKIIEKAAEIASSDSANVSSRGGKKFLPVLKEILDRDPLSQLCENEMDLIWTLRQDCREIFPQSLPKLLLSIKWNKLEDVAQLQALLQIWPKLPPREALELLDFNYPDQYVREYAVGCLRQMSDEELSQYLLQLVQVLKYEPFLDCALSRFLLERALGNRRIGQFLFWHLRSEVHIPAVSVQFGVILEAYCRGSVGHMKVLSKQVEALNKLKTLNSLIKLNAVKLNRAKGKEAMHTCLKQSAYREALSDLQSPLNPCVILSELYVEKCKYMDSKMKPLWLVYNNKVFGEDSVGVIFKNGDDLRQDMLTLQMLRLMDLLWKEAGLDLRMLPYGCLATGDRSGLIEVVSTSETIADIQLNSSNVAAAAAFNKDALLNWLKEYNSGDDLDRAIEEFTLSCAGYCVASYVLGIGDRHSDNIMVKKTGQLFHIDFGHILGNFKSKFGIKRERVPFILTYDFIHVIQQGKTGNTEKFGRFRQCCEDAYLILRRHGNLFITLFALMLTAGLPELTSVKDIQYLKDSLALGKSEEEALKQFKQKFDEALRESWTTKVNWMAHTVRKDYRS
PI3Kβ, sequence (P27986 whole entry partner, species assumed): as the sequence (P27986 whole entry partner) above
Procedure: as §5, §2, §3, §4

IC50 [2]	IC50 [3]	IC50 [4]	IC50 [5]	solubility at 2 h [6]	IC50 [7]	IC50 [8]	SMILES	Vssobs [1]
							CC(=O)Nc1nc(C)c(-c2cc3c(c(NS(C)(=O)=O)c2)C(=O)N([C@@H](C)C2CC2)C3)s1 [AZ-17]	0.7 L/kg
> 1000 nM	315 nM	> 1000 nM	1.4 nM				CC(=O)Nc1nc(C)c(-c2cc3c(c(P(C)(C)=O)c2)C(=O)N([C@@H](C)C2CC2)C3)s1 [Compound 1, (S)-N-(5-(2-(1-cyclopropylethyl)-7-(dimethylphosphoryl)-1-oxoisoindolin-5-yl)-4-methylthiazol-2-yl)acetamide]	
2280 nM	2.5 nM	> 1000 nM	1.7 nM	3.5 µM (≈ 1.35 µg/mL)			COc1nc(-c2sc(NC(C)=O)nc2C)cc2c1C(=O)N([C@@H](C)C1CC1)C2 [Compound 22, (S)-N-(5-(2-(1-cyclopropylethyl)-4-methoxy-3-oxo-2,3-dihydro-1H-pyrrolo[3,4-c]pyridin-6-yl)-4-methylthiazol-2-yl)acetamide]	
1510 nM	2 nM	1210 nM	1 nM	202 µM (≈ 93.6 µg/mL)	3330 nM	> 10000 nM	CCS(=O)(=O)Nc1nc(-c2sc(NC(C)=O)nc2C)cc2c1C(=O)N([C@@H](C)C1CC1)C2 [Compound 23, (S)-N-(5-(2-(1-cyclopropylethyl)-4-(ethylsulfonamido)-3-oxo-2,3-dihydro-1H-pyrrolo[3,4-c]pyridin-6-yl)-4-methylthiazol-2-yl)acetamide]	
1420 nM	2.2 nM	794 nM	1.5 nM	83 µM (≈ 39.5 µg/mL)			CC(=O)Nc1nc(C)c(-c2cc3c(c(NS(=O)(=O)C4CC4)n2)C(=O)N([C@@H](C)C2CC2)C3)s1 [Compound 24, (S)-N-(5-(4-(cyclopropanesulfonamido)-2-(1-cyclopropylethyl)-3-oxo-2,3-dihydro-1H-pyrrolo[3,4-c]pyridin-6-yl)-4-methylthiazol-2-yl)acetamide]	
	3.2 nM	1330 nM		23 µM (≈ 10.2 µg/mL)	4140 nM	> 10000 nM	CC(=O)Nc1nc(C)c(-c2cc3c(c(N4CCOCC4)n2)C(=O)N([C@H](C)C2CC2)C3)s1 [Compound 35, (R)-N-(5-(2-(1-cyclopropylethyl)-4-morpholino-3-oxo-2,3-dihydro-1H-pyrrolo[3,4-c]pyridin-6-yl)-4-methylthiazol-2-yl)acetamide]	
	9.3 nM	1550 nM	1.9 nM	2.3 µM (≈ 1.13 µg/mL)	8420 nM	> 10000 nM	CC(=O)Nc1nc(C)c(-c2cc3c(c(N4CCS(=O)(=O)CC4)n2)C(=O)N([C@@H](C)C2CC2)C3)s1 [Compound 38, (S)-N-(5-(2-(1-cyclopropylethyl)-4-(1,1-dioxidothiomorpholino)-3-oxo-2,3-dihydro-M-pyrrolo[3,4-c]pyridin-6-yl)-4-methylthiazol-2-yl)acetamide]	
